According to US7582639B2, “N-deacetylthiocolchicine derivatives, their use and pharmaceutical formulations containing them” (priority 2004, dated 2009):
Read-outs that look alike come from different tables or passages of the source.

Assays:
Assay in all cases: cells
Type in all cases: cell-based
[1] = system: A2780/pt (resistant to tocisplatin); settings: after 72 hours, concentration that inhibits cell growth by 50% compared with non treated cells, read-out: IC50 (nM) ± S.E. A2780/pt (resistant to tocisplatin)
Method: (§1) The activity of the compounds of formula I was evaluated on a large number of tumour cells expressing different resistance.
(§2) Cytotoxic activity was evaluated according to the procedure described by M. C.

A2780 (Ovarian) = settings: after 72 hours, concentration that inhibits cell growth by 50% compared with non treated cells, read-out: IC50 (nM) ± S.E. A2780 (Ovarian)
Method: as §1, §2

Widr (colon) = settings: after 72 hours, concentration that inhibits cell growth by 50% compared with non treated cells, read-out: IC50 (nM) ± S.E. Widr (colon)
Method: as §1, §2

[2] = system: A2780/top (resistant to topotecan); settings: after 72 hours, concentration that inhibits cell growth by 50% compared with non treated cells, read-out: IC50 (nM) ± S.E. A2780/top (resistant to topotecan)
Method: as §1, §2

MCF7-R (MDR+) = settings: after 72 hours, concentration that inhibits cell growth by 50% compared with non treated cells, read-out: IC50 (nM) ± S.E. MCF7-R (MDR+)
Method: as §1, §2

MCF7 (breast) = settings: after 72 hours, concentration that inhibits cell growth by 50% compared with non treated cells, read-out: IC50 (nM) ± S.E. MCF7 (breast)
Method: as §1, §2

A2780/dx (Pgp+) = settings: after 72 hours, concentration that inhibits cell growth by 50% compared with non treated cells, read-out: IC50 (nM) ± S.E. A2780/dx (Pgp+)
Method: as §1, §2

Compound	IC50 [1]	IC50 (A2780 (Ovarian))	IC50 (Widr (colon))	IC50 [2]	IC50 (MCF7-R (MDR+))	IC50 (MCF7 (breast))	IC50 ([1]; Homo sapiens, A2780)	IC50 (A2780/dx (Pgp+))	IC50 (A2780 (Ovarian); Homo sapiens, A2780)	IC50 (MCF7-R (MDR+); Homo sapiens, MCF7R)	IC50 (MCF7 (breast); Homo sapiens, MCF7)	IC50 (Widr (colon); Homo sapiens, WiDr)	IC50 ([2]; Homo sapiens, A2780)
N-Deacetylthiocolchicine 1,4-phenylenediamine bis-urea [E.g. 4]	331 ± 63 nM	252 ± 38 nM	650 ± 40 nM	152 ± 36 nM									
trans-1,4-Cyclohexanedicarboxylic acid bis-(N-deacetylthiocolchicine)amide [E.g. 2]	26 ± 1 nM	37 ± 5 nM	230 ± 166 nM	32 ± 24 nM	135 ± 11 nM	14 ± 0.9 nM							
COc1cc2c(c(OC)c1OC)-c1ccc(SC)c(=O)cc1[C@@H](NC(=O)c1cncc(C(=O)N[C@H]3CCc4cc(OC)c(OC)c(OC)c4-c4ccc(SC)c(=O)cc43)c1)CC2 [E.g. 1, 3,5-Pyridinedicarboxylic acid bis-(N-deacetylthiocolchicine)amide]							3.7 ± 0.6 nM	806 ± 286 nM	3 ± 0.4 nM	72 ± 4.3 nM	0.7 ± 0.1 nM	25 ± 26.4 nM	6.9 ± 4.2 nM
3,5-Benzenedicarboxylic acid bis-(N-deacetylthiocolchicine)amide [E.g. 3]	23 ± 4.6 nM	8 ± 5.6 nM	48 ± 24 nM	5.5 ± 0.1 nM	108 ± 14 nM	1.5 ± 0.1 nM							
